Biological target: T1, lactate dehydrogenase A (LDHA) (Homo sapiens, UniProt P00338)
T1 construct: his-tag LDHA human recombinant protein (Cat. No. 71081, BPS Bioscience)
Test: SPR (Biacore T200, LDHA immobilized on CM5 chip, berberine […])
Assay type: binding

COc1ccc2cc3[n+](cc2c1OC)CCc1cc2c(cc1-3)OCO2 [BBR, berberine]
Kd: 4.59 µM

— PMC8238920, “Functional inhibition of lactate dehydrogenase suppresses pancreatic adenocarcinoma progression” (Clinical and Translational Medicine, 2021)
